Measurements published in patent US20090176714A1, “METHOD OF REDUCING THE EFFECTS OF ABeta AND COMPOSITIONS THEREFORE” (priority 2004, published 2009).

Legend:
hippocampi of mice = assay: Stereotaxic injection into mouse hippocampus, quantitative real-time PCR; type: in vivo; conditions: estimated 1 nM intra-hippocampal concentration, 48 hours after injection
Method: Ten week old B6/SJL mice were stereotaxically injected on the right side of their hippocampi with sAPPα, a 10 amino acid fragment, or a scrambled 10-mer to an estimated 1 nM intra-hippocampal concentration. The contralateral sides were injected with artificial cerebrospinal fluid. Each injection consisted of […] of solution delivered over the period of 10 minutes. 48 hours after surgery, the mice were perfused with cold PBS, and their hippocampi were dissected and stored in stabilizing solution for subsequent RNA extraction.
RNA was extracted from hippocampal samples, DNase treated, and reverse transcribed. The cDNA was then used in quantitative real-time PCR performed with SYBR green on the Roche LightCycler system. Portions of each RNA sample were also used in no-RT traditional PCR reactions to validate the absence of DNA contamination.

human cortical slices = assay: TUNEL/NeuN staining of human cortical slices; type: cell-based
Method: β-amyloid1-42 and reverse Aβ (Aβ42-1) were obtained from BACHEM (Torrance, Calif.). These peptides were dissolved in 0.1% NH3OH at 222 μM. For treatments, Aβ or reverse Aβ was aggregated at 50 μM in Neurobasal media with B-27 supplement and 0.5 mM glutamine at 37° C. for 24 hours. Then, the slice culture media was removed, and the slices were treated with 1 mL of 25 μM or 50 μM Aβ, reverse Aβ, or vehicle for 24 hour. Human TTR (Calbiochem) was added to slices together with the Aβ treatment at final concentrations of 0.03, 0.3, and 3 μM TTR. sAPPα was obtained from Sigma (St. Louis, Mo.). Unless otherwise stated, all sAPPα treatments were performed at 1 nM 48 hours prior to the addition of Aβ. The 10 amino acid fragment of the carboxyl-terminal region of sAPPα (592-601 of APP695; SEVKMDAEFR was added according to the same protocol for sAPPα. Because a variable amount of tissue was obtained from each patient, not all treatments were performed on all patients.
Cortical slice cryosections were stained with terminal deoxynucleotidyl transferase-mediated, dUTP nick end labeling (TUNEL) and with an anti-NeuN antibody. Cells with DNA fragmentation were determined by the terminal deoxynucleotidyl transferase incorporation of fluorescein isothiocyanate (FITC)-12-dUTP into DNA (In Situ Cell Death Detection kit, Roche Biochem, Indianapolis, Ind.). At least 3 random images per slice were generated by confocal analysis at 600× magnification. The number of TUNEL positive, NeuN positive, and both TUNEL and NeuN positive cells were then quantified.

[1] = Aβ treatment, 1 subject, FIG. 6B

Row | Substance | Expression of IGFBP2 in treated vs control side of hippocampus (hippocampi of mice; FIG. 8) | Expression of IGF2 in treated vs control side of hippocampus (hippocampi of mice; FIG. 10) | DNA strand breaks as indicated by TUNEL (human cortical slices; 50 μM Aβ) | Percent of neurons that were TUNEL positive (% TUNEL/NeuN) (human cortical slices; [1]) | Percent of total TUNEL positive cells (% TUNEL) (human cortical slices; [1])
1 | SEVKMDAEFR | induced an increase in expression | induced an increase in expression | – | – | –
2 | β-amyloid1-42 [Aβ] | – | – | resulted in DNA strand breaks | increased | increased
